Source: ChEMBL document CHEMBL4680133, “Novel nitroimidazole derivatives evaluated for their trypanocidal, cytotoxic, and genotoxic activities” (Eur J Med Chem, 2020)

Tested on: HepG2
Experiment: Genotoxicity in human HepG2 assessed as number of micronucleated cells at 175 uM measured after 24 hrs by micronucleus test (reference value: 14 to 18)
Assay type: toxicity, cell-based
Conditions: hepg2, 24 h

CCCCCc1ccc(-c2cn(-c3c([N+](=O)[O-])ncn3C)nn2)cc1
Activity: 14
